Test results: PMC11167047 (Cell Death Discovery, 2024)

Columns and labels:
Experiment in all cases: kinome screen (33PanQinase)
Assay type in all cases: biochemical
AuroraB = target: T1, AuroraB (Homo sapiens, UniProt Q96GD4)
T1 construct: purchased Reaction Biology Europe GmbH (formerly ProQinase)
Description: (§1) The Kinome Screening was performed by Reaction Biology Europe GmbH (http://reactionbiology.com; Freiburg i. Br., Germany).

SGK3 = target: T2, SGK3 (Homo sapiens, UniProt Q96BR1)
T2 construct: purchased Reaction Biology Europe GmbH (formerly ProQinase)
T2 sequence (Q96BR1 1-496): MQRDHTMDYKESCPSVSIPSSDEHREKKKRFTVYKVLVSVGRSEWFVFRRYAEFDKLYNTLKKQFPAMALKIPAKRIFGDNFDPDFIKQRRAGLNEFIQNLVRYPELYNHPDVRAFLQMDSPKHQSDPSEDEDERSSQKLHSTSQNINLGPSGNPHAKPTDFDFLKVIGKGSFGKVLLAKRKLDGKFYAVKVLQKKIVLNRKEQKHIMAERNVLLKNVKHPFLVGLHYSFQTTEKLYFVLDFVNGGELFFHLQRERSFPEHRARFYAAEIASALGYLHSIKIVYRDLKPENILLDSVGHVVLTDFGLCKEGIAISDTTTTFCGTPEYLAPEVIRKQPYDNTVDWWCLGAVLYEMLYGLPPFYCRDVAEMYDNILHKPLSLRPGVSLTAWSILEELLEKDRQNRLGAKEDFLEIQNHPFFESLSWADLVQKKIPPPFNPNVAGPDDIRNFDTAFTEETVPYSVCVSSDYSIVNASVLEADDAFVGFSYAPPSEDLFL
Description: as §1

CLK2 = target: T3, CLK2 (Homo sapiens, UniProt P49760)
T3 construct: purchased Reaction Biology Europe GmbH (formerly ProQinase)
Description: as §1

PKCη = target: T4, PKCη (Homo sapiens, UniProt P24723)
T4 construct: purchased Reaction Biology Europe GmbH (formerly ProQinase)
Description: as §1

DCAMKL2 = target: T5, DCAMKL2 (Homo sapiens, UniProt Q8N568)
T5 construct: purchased Reaction Biology Europe GmbH (formerly ProQinase)
T5 sequence (Q8N568 1-766): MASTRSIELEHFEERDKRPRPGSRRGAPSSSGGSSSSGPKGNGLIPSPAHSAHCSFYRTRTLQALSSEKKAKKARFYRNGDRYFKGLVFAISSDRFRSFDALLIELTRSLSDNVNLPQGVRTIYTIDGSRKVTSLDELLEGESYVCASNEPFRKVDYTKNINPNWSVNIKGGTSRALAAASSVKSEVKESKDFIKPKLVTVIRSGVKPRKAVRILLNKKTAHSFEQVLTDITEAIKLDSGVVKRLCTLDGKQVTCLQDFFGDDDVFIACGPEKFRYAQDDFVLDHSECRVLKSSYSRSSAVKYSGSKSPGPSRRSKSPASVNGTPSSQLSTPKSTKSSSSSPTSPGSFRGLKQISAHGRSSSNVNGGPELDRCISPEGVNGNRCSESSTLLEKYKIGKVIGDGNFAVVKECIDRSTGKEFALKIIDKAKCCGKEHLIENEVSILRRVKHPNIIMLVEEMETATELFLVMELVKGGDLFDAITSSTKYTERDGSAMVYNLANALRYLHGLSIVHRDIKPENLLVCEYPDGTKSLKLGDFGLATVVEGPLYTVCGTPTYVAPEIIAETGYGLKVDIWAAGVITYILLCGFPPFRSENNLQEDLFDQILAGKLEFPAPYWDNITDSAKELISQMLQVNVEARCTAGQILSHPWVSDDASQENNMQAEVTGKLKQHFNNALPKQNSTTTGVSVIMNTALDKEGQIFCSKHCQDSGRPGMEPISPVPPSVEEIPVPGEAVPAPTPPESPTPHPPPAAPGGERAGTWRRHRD
Description: as §1

SLK = target: T6, SLK (Homo sapiens, UniProt Q9H2G2)
T6 construct: purchased Reaction Biology Europe GmbH (formerly ProQinase)
Description: as §1

S6Kbeta = target: T7, S6Kbeta (Homo sapiens, UniProt Q9UBS0)
T7 construct: purchased Reaction Biology Europe GmbH (formerly ProQinase)
Description: as §1

PKCν = target: T8, PKCν (Homo sapiens, UniProt O94806)
T8 construct: purchased Reaction Biology Europe GmbH (formerly ProQinase)
T8 sequence (O94806 1-890): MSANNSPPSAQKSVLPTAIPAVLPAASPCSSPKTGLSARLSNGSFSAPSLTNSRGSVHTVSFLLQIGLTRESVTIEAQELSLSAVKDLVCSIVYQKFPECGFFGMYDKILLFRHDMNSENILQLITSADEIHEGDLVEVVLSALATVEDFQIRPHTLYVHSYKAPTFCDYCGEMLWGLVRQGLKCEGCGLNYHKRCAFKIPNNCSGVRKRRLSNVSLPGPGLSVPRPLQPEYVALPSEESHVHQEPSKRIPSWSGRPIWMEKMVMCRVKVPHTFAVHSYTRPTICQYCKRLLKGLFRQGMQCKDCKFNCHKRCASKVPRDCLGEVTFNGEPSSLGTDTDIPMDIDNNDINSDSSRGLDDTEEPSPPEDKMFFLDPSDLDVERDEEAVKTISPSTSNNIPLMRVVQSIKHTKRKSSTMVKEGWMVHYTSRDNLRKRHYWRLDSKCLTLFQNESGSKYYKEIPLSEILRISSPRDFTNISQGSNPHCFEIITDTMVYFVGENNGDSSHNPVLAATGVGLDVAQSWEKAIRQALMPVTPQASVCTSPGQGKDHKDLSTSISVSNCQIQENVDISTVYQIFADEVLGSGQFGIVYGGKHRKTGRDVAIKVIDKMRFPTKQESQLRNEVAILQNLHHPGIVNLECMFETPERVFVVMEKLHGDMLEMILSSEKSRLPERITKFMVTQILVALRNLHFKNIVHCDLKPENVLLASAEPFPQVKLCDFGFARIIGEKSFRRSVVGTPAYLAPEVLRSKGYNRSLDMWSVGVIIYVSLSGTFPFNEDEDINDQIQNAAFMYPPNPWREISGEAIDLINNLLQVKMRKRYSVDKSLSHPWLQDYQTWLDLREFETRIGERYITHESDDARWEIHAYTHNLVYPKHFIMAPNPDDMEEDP
Description: as §1

MARK3 = target: T9, MARK3 (Homo sapiens, UniProt P27448)
T9 construct: purchased Reaction Biology Europe GmbH (formerly ProQinase)
Description: as §1

T1 sequence (Q96GD4 whole entry): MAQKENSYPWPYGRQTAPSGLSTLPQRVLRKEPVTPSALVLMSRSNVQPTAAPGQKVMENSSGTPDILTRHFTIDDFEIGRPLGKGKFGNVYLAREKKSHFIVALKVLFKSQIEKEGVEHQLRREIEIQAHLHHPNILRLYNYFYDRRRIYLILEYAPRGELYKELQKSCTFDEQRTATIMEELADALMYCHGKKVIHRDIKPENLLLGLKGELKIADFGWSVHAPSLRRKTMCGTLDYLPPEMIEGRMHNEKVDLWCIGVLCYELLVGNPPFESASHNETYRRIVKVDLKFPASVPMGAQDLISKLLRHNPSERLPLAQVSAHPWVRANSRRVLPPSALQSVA
T6 sequence (Q9H2G2 whole entry): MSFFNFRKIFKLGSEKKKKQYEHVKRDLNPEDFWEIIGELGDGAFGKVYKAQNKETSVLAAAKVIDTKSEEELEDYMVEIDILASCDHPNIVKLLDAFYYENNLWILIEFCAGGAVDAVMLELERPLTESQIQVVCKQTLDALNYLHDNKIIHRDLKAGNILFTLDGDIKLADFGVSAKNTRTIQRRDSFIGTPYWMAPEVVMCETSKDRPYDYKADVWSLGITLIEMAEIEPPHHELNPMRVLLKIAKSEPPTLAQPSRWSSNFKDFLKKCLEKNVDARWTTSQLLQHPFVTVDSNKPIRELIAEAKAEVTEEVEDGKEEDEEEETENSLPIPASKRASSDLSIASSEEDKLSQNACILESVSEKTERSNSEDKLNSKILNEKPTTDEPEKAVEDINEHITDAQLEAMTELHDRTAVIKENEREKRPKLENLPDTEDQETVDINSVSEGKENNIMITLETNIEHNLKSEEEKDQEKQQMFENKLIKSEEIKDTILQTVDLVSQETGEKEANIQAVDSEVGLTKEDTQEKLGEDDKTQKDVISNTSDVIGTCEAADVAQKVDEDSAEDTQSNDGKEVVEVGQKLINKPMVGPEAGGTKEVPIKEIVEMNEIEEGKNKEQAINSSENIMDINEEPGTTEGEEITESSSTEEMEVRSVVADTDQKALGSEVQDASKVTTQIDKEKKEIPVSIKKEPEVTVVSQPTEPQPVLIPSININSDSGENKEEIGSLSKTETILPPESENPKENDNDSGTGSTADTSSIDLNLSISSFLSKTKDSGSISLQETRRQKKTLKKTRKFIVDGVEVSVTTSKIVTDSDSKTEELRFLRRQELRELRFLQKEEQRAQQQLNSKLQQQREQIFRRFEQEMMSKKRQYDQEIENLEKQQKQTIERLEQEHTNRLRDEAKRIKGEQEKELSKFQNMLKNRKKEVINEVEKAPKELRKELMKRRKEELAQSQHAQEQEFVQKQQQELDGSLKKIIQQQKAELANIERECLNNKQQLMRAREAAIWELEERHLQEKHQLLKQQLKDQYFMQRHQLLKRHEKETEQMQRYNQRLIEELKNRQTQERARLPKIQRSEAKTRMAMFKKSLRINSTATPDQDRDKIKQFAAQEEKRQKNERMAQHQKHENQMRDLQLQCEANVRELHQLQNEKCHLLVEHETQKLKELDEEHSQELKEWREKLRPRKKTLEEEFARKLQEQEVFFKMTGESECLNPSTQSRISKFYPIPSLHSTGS
T9 sequence (P27448 whole entry): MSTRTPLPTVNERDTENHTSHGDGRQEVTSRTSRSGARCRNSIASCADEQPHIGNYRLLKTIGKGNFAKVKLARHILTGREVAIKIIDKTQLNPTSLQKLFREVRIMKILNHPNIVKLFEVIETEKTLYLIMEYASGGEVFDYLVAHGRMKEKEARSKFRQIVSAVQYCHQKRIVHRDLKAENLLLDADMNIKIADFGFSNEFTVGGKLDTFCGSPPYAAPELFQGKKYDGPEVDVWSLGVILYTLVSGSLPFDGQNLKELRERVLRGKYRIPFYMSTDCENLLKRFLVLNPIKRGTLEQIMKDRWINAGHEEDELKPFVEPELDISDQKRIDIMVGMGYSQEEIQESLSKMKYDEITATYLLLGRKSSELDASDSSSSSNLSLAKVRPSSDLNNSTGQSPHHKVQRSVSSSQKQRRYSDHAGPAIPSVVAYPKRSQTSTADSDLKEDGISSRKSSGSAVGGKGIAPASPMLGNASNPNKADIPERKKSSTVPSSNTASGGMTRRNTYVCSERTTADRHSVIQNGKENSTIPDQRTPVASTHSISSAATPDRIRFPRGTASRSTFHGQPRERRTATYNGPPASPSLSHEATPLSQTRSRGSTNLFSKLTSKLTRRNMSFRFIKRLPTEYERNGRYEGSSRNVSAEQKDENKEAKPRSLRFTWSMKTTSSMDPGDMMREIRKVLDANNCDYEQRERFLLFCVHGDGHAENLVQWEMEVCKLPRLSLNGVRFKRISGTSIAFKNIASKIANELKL
T4 sequence (P24723 whole entry): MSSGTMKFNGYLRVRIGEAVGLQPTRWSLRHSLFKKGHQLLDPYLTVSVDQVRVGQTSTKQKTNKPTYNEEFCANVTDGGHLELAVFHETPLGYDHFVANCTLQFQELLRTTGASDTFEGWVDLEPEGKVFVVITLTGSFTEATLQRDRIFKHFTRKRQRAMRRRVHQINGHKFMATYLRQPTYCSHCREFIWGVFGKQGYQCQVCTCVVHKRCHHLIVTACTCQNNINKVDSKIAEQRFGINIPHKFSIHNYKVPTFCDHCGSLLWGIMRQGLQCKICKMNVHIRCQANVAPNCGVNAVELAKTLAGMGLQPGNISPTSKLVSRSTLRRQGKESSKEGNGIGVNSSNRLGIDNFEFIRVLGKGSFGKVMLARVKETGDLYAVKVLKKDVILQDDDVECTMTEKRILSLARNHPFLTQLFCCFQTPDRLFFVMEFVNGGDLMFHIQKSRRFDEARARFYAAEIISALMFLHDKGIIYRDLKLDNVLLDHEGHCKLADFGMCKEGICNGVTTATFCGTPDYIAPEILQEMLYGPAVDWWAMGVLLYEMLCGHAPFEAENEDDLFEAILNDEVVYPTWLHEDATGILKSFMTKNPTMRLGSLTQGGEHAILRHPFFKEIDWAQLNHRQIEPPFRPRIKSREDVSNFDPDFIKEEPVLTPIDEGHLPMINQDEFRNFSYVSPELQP
T7 sequence (Q9UBS0 whole entry): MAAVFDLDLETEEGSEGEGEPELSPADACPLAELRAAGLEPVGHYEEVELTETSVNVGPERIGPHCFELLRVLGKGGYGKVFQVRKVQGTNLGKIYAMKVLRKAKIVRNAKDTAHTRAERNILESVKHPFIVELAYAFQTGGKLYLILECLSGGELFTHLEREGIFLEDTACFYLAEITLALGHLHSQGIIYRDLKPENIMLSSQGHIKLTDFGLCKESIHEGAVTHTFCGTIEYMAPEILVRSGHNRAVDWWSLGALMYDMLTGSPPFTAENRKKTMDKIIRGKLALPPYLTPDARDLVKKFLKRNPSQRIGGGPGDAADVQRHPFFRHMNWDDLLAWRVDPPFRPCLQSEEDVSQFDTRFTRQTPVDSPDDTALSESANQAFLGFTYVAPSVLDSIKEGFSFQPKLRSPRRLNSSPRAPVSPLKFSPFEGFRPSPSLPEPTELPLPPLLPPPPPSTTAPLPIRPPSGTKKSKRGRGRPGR
T3 sequence (P49760 whole entry): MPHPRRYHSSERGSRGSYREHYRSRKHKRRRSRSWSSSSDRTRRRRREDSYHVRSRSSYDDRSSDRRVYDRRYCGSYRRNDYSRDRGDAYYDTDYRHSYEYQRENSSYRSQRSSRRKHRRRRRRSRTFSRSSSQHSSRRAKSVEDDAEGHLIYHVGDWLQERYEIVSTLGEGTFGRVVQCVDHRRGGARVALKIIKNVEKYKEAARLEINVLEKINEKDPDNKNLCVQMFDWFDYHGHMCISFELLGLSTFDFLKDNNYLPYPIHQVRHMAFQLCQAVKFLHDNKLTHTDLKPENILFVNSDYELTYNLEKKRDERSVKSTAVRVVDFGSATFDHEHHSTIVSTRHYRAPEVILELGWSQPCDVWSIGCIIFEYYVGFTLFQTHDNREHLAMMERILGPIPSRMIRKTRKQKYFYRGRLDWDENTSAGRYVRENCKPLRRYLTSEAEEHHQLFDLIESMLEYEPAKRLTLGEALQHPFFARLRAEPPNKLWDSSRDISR

Row | Structure (SMILES) | residual kinase activity (AuroraB; 0.3 µM) | residual kinase activity (SGK3; 0.3 µM) | residual kinase activity (CLK2; 0.3 µM) | residual kinase activity (PKCη; 0.3 µM) | residual kinase activity (DCAMKL2; 0.3 µM) | residual kinase activity (SLK; 0.3 µM) | residual kinase activity (S6Kbeta; 0.3 µM) | residual kinase activity (PKCν; 0.3 µM) | residual kinase activity (MARK3; 0.3 µM) | further results
1 | COc1ccnc2[nH]cc(-c3cc(N)nc(N)c3)c12 [meriolin 16] | 61 % of control | 84 % of control | 1 % of control | 2 % of control | 85 % of control | 77 % of control | 103 % of control | 32 % of control | 86 % of control | residual kinase activity (AuroraB; 0.03 µM): 85 % of control; residual kinase activity (SGK3; 0.03 µM): 94 % of control; residual kinase activity (CLK2; 0.03 µM): 8 % of control; residual kinase activity (PKCη; 0.03 µM): 8 % of control; residual kinase activity (DCAMKL2; 0.03 µM): 92 % of control; residual kinase activity (SLK; 0.03 µM): 83 % of control; residual kinase activity (S6Kbeta; 0.03 µM): 89 % of control; residual kinase activity (PKCν; 0.03 µM): 89 % of control; residual kinase activity (MARK3; 0.03 µM): 99 % of control
2 | c1ccc(CNc2cc(-c3c[nH]c4ncccc34)ccn2)cc1 [meriolin 36] | 67 % of control | 81 % of control | 1 % of control | 2 % of control | 91 % of control | 4 % of control | 87 % of control | 62 % of control | 89 % of control | residual kinase activity (AuroraB; 3 µM): 26 % of control; residual kinase activity (SGK3; 3 µM): 27 % of control; residual kinase activity (CLK2; 3 µM): 2 % of control; residual kinase activity (PKCη; 3 µM): 2 % of control; residual kinase activity (DCAMKL2; 3 µM): 81 % of control; residual kinase activity (SLK; 3 µM): 1 % of control; residual kinase activity (S6Kbeta; 3 µM): 67 % of control; residual kinase activity (PKCν; 3 µM): 17 % of control; residual kinase activity (MARK3; 3 µM): 48 % of control
